The structures appear in SMILES notation. Converted amounts (≈) assume the structure as drawn.

A word on the IC50: it is the point on the concentration scale where inhibition reaches its midpoint.

The test system of the first test is leukemia L 1210 strain cells. In words: cell proliferation test (colony formation, procedure of HAMBURGER and SALMON), continuous exposure. In kind it is cell-based. The following applies: Mus musculus, L1210, read-out: IC50 (continuous exposure). The procedure: The experimental protocol was performed according to the procedure of HAMBURGER and SALMON on leukemia L 1210 strain cells. Some modifications were introduced in the procedure of HAMBURGER and SALMON, and in particular:
the conditioned medium was replaced by McCoy5A. The number of cells in a dish was reduced to 5×10^2 cells per dish on account of the high covering efficiency of leukemia L 1210. […]
In addition, parallel experiments were carried out with continuous incubation and with various concentrations of the test substance by mixing the latter with the upper layer before application.
The dishes were kept in an incubator with 5% CO2, 20% O2, at 95% relative humidity for 5 to 7 days at 37° C. After this period, the colonies having a diameter greater than 60 μm were counted with an inverted microscope.
The results were expressed as a percentage of the number of colonies formed from treated L 1210 relative to an untreated control. The coefficient of variation of repeated experiments was less than 15%.
Turning to `COc1cccc2c1C(=O)c1c(O)c3c(c(O)c1C2=O)C[C@@](O)(C(C)=O)C[C@@H]3O[C@H]1C[C@H](NCC#N)[C@H](O)[C@H](C)O1` [3'-N-(cyanomethyl)daunorubicin], the IC50 came to 0.0028 µg/mL (≈ 0.00494 µM).

With `COCCN(CC#N)[C@H]1C[C@H](O[C@H]2C[C@](O)(C(C)=O)Cc3c(O)c4c(c(O)c32)C(=O)c2c(OC)cccc2C4=O)O[C@@H](C)[C@H]1O` [3'-N-cyanomethyl-3'-N-(2-methoxyethyl)daunorubicin], the IC50 stood at 0.09 µg/mL (≈ 0.144 µM).

The same test, now with this note: Mus musculus, L1210; L 1210 leukemia cells, continuous incubation, colonies >60 μm counted after 5 to 7 days at 37° C; read-out: IC50 (continuous exposure).
For `COc1cccc2c1C(=O)c1c(O)c3c(c(O)c1C2=O)C[C@@](O)(C(C)=O)C[C@@H]3O[C@H]1C[C@H](N(CC#N)CC#N)[C@H](O)[C@H](C)O1` [3'-N,N-bis(cyanomethyl)daunorubicin], the IC50 was 0.08 µg/mL (≈ 0.132 µM).

`COCCOCCN(CCOCCOC)[C@H]1C[C@H](O[C@H]2C[C@](O)(C(C)=O)Cc3c(O)c4c(c(O)c32)C(=O)c2c(OC)cccc2C4=O)O[C@@H](C)[C@H]1O` [3'-N,N-bis[2-(2-methoxyethoxy)ethyl]daunorubicin]: the IC50 was 0.22 µg/mL (≈ 0.301 µM).

`CCN(CC)C(=O)CN(CC(=O)N(CC)CC)[C@H]1C[C@H](O[C@H]2C[C@](O)(C(C)=O)Cc3c(O)c4c(c(O)c32)C(=O)c2c(OC)cccc2C4=O)O[C@@H](C)[C@H]1O` [3'-N,N-bis[(N,N-diethylcarbamoyl)methyl]daunorubicin]: the IC50 was 0.65 µg/mL (≈ 0.862 µM).

Turning to `COCCN[C@H]1C[C@H](O[C@H]2C[C@](O)(C(C)=O)Cc3c(O)c4c(c(O)c32)C(=O)c2c(OC)cccc2C4=O)O[C@@H](C)[C@H]1O` [3'-N-(2-methoxyethyl)daunorubicin], the IC50 is 0.01 µg/mL (≈ 0.0171 µM).

In the case of `COC(=O)CN[C@H]1C[C@H](O[C@H]2C[C@](O)(C(C)=O)Cc3c(O)c4c(c(O)c32)C(=O)c2c(OC)cccc2C4=O)O[C@@H](C)[C@H]1O` [3'-N-(carbomethoxymethyl)daunorubicin], the IC50 worked out at 0.24 µg/mL (≈ 0.4 µM).

For `COCCOCCN[C@H]1C[C@H](O[C@H]2C[C@](O)(C(C)=O)Cc3c(O)c4c(c(O)c32)C(=O)c2c(OC)cccc2C4=O)O[C@@H](C)[C@H]1O` [3'-N-[2-(2-methoxyethoxy)ethyl]daunorubicin], the IC50 was found to be 0.07 µg/mL (≈ 0.111 µM).

Consider `CCN(CC)C(=O)CN[C@H]1C[C@H](O[C@H]2C[C@](O)(C(C)=O)Cc3c(O)c4c(c(O)c32)C(=O)c2c(OC)cccc2C4=O)O[C@@H](C)[C@H]1O` [3'-N-[(N,N-diethylcarbamoyl)methyl]daunorubicin], for which the IC50 amounted to 0.28 µg/mL (≈ 0.437 µM).

In the case of `COc1cccc2c1C(=O)c1c(O)c3c(c(O)c1C2=O)C[C@@](O)(C(C)=O)C[C@@H]3O[C@H]1C[C@H](N)[C@H](O)[C@H](C)O1` [DAUNORUBICIN, daunorubicin, reference compound], the IC50 was 0.02 µg/mL (≈ 0.0379 µM).

As to `COc1cccc2c1C(=O)c1c(O)c3c(c(O)c1C2=O)C[C@@](O)(C(=O)CO)C[C@@H]3O[C@H]1C[C@H](N)[C@H](O)[C@H](C)O1` [DOXORUBICIN, doxorubicin, reference compound], the IC50 was determined as 0.02 µg/mL (≈ 0.0368 µM).

Values taken from patent US4789665A, “Anthracyclines and drugs containing them” (Laboratoires Hoechst S. A., priority 1985, dated 1988).
